Source: patent publication US9580416B2, “Inhibitors of Bruton's tyrosine kinase” (PHARMACYCLICS LLC, priority 2014, dated 2017)

Assays:
Type in all cases: biochemical
[1] = target: Lck (Homo sapiens, UniProt P06239); test: Lck kinase activity, TR-FRET assay; settings: read-out: LCK (IC50)
Procedure: (§1) Btk kinase activity is determined using a time-resolved fluorescence resonance energy transfer (TR-FRET) methodology. Measurements are performed in a reaction volume of 50 μL using 96-well assay plates. Kinase enzyme, inhibitor, ATP (at the Km for the kinase), and 1 […] (Biotin-AVLESEEELYSSARQ-NH2) are incubated in a reaction buffer composed of 20 mM Tris, 50 mM NaCl, MgCl2 (5-25 mM depending on the kinase), MnCl2 (0-10 mM), 1 mM DTT, 0.1 mM EDTA, 0.01% bovine serum albumin, 0.005% Tween-20, and 10% DMSO at pH 7.4 for one hour. The reaction is quenched by the addition of 1.2 equivalents of EDTA (relative to divalent cation) in 25 μL of 1× Lance buffer (Perkin-Elmer). Streptavidin-APC (Perkin-Elmer) and Eu-labeled p-Tyr100 antibody (Perkin-Elmer) in 1× Lance buffer are added in a 25 μL volume to give final concentrations of 100 nM and 2.5 nM, respectively, and the mixture is allowed to incubate for one hour. The TR-FRET signal is measured on a multimode plate reader with an excitation wavelength (λEx) of 330 nm and detection wavelengths (λEm) of 615 and 665 nm. Activity is determined by the ratio of the fluorescence at 665 nm to that at 615 nm. For each compound, enzyme activity is measured at various concentrations of compound. Negative control reactions are performed in the absence of inhibitor in replicates of six, and two no-enzyme controls are used to determine baseline fluorescence levels. Inhibition constants, Ki(app), ware obtained using the program BatchKi (Kuzmic et al. (2000), Anal. Biochem. 286:45-50). IC50s are obtained according to the equation: IC50={Ki(app)/(1+[ATP]/Km^ATP)}+[E]total/2;
(§2) For all kinases, [ATP]=Km^ATP, [Btk]total=0.5 nM and [Lck]total=6 nM.

[2] = target: EGFR (Homo sapiens, UniProt P00533); test: Inhibition of a panel of kinases, in vitro HotSpot kinase assay: EGFR
Procedure: The degree of inhibition of a panel of kinases is determined using the in vitro HotSpot kinase assay (purified enzymes, ^33P-ATP, an appropriate substrate and 1 uM ATP).

[3] = target: Btk (Homo sapiens, UniProt Q06187); test: Btk kinase activity, TR-FRET assay; settings: read-out: Btk (IC50)
Procedure: as §1, §2

Sequence of Lck (P06239 whole entry, species assumed): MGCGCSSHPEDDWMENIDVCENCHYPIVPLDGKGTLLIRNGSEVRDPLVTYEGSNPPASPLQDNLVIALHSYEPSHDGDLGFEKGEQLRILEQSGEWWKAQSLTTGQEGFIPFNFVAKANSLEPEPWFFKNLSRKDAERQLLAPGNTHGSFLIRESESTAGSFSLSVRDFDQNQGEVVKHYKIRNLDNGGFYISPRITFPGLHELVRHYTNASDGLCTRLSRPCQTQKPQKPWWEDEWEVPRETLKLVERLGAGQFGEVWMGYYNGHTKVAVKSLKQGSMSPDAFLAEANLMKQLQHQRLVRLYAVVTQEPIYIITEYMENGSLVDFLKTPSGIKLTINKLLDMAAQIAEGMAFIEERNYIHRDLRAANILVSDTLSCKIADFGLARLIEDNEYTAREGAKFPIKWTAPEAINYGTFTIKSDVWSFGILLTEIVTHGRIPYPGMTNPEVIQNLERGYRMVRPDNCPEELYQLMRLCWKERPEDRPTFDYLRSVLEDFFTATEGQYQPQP
Sequence of EGFR (P00533 25-1210): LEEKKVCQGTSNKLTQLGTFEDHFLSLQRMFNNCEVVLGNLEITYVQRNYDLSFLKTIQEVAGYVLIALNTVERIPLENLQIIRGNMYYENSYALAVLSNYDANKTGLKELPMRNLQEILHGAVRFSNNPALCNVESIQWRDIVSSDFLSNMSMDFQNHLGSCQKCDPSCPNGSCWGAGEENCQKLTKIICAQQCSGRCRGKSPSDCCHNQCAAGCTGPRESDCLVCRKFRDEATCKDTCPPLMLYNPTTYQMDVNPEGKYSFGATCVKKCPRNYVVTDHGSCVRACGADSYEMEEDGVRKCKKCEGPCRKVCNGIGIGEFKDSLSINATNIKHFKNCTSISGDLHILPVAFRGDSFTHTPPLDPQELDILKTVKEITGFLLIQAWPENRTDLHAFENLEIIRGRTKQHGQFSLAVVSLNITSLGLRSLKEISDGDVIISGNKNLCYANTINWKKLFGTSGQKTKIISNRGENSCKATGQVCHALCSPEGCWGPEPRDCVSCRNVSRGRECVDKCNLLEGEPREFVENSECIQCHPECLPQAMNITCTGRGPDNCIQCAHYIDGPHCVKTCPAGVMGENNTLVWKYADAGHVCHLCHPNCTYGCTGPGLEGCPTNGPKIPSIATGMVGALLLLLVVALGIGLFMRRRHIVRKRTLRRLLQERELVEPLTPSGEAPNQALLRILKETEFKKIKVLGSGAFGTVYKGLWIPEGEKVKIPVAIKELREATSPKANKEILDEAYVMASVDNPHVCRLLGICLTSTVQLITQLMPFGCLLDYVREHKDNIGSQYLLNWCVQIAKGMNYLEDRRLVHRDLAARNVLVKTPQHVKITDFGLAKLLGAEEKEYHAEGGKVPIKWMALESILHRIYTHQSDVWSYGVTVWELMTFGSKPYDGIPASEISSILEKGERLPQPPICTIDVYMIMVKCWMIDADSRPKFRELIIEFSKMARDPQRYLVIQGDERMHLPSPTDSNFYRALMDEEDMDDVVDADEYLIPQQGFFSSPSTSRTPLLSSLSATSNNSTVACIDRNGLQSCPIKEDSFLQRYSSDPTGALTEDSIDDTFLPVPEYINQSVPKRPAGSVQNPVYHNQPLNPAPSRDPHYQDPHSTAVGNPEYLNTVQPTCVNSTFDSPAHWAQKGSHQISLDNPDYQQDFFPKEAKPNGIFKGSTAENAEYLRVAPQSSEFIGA
Sequence of Btk (Q06187 whole entry): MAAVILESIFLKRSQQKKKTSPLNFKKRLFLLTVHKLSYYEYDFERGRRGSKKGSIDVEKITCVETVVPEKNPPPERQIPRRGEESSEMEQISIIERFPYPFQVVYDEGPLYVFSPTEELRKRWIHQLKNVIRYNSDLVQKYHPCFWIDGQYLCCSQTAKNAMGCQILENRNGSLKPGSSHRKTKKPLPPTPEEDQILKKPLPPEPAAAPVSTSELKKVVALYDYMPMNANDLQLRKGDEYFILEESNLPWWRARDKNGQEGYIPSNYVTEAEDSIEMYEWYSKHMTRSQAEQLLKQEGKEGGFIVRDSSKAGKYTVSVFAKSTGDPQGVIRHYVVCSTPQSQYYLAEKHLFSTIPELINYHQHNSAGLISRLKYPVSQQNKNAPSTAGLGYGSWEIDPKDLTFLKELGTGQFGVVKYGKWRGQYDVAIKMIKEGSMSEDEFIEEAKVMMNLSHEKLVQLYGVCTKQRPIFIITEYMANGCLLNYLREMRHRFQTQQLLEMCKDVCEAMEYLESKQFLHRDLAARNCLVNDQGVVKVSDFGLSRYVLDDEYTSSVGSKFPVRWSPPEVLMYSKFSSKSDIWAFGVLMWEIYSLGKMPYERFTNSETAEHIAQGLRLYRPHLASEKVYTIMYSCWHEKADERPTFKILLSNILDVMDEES

Row | SMILES | IC50 [1] [nM] | IC50 [2] [nM] | IC50 [3] [nM]
1 | CN(C)C/C=C/C(=O)N1CC[C@@H](Nc2n[nH]c3nccc(Oc4ccc(Cl)cc4)c23)C1 [compound 3, (2E)-1-[(3R)-{[4-(4-chlorophenoxy)-1H-pyrazolo[3,4-b]pyridin-3-yl]amino}pyrrolidin-1-yl]-4-(dimethylamino)but-2-en-1-one] | > 10000 | 100 to 1000 | < 100
2 | C=CC(=O)N1CC[C@@H](Nc2c[nH]c3nccc(Oc4ccc(Cl)cc4)c23)C1 [compound 7, 1-[(3R)-3-{[4-(4-chlorophenoxy)-1H-pyrrolo[2,3-b]pyridin-3-yl]amino}pyrrolidin-1-yl]prop-2-en-1-one] | 1000 to 10000 | 1000 to 10000 | < 100
3 | CN(C/C=C/C(=O)N1CC[C@@H](Nc2n[nH]c3nccc(Oc4ccc(Oc5ccccc5)cc4)c23)C1)C1CC1 [compound 10, (2E)-4-[cyclopropyl(methyl)amino]-1-[(3R)-3-{[4-(4-phenoxyphenoxy)-1H-pyrazolo[3,4-b]pyridin-3-yl]amino}pyrrolidin-1-yl]but-2-en-1-one] | < 100 | 100 to 1000 | < 100
4 | CN(C/C=C/C(=O)N1CC[C@@H](Nc2n[nH]c3nccc(Oc4cccc(Oc5ccccc5)c4)c23)C1)C1CC1 [compound 11, (2E)-4-[cyclopropyl(methyl)amino]-1-[(3R)-3-{[4-(3-phenoxyphenoxy)-1H-pyrazolo[3,4-b]pyridin-3-yl]amino}pyrrolidin-1-yl]but-2-en-1-one] | 1000 to 10000 | 1000 to 10000 | < 100
5 | CN(C)C/C=C/C(=O)N1CC[C@@H](Nc2n[nH]c3nccc(Oc4cccc(Oc5ccccc5)c4)c23)C1 [compound 12, (2E)-4-(dimethylamino)-1-[(3R)-3-{[4-(3-phenoxyphenoxy)-1H-pyrazolo[3,4-b]pyridin-3-yl]amino}pyrrolidin-1-yl]but-2-en-1-one] | 1000 to 10000 | 1000 to 10000 | < 100
6 | CN(C)C/C=C/C(=O)N1CCC[C@@H](Nc2n[nH]c3nccc(Oc4cccc(Oc5ccccc5)c4)c23)C1 [compound 13, (2E)-4-(dimethylamino)-1-[(3R)-3-{[4-(3-phenoxyphenoxy)-1H-pyrazolo[3,4-b]pyridin-3-yl]amino}piperidin-1-yl]but-2-en-1-one] | 100 to 1000 | 100 to 1000 | < 100
7 | CN(C)C/C=C/C(=O)N1CC[C@@H](Oc2n[nH]c3nccc(Nc4ccc(Oc5ccccc5)cc4)c23)C1 [compound 14, (2E)-4-(dimethylamino)-1-[(3R)-3-({4-[(4-phenoxyphenyl)amino]-1H-pyrazolo[3,4-b]pyridin-3-yl}oxy)pyrrolidin-1-yl]but-2-en-1-one] | < 100 | < 100 | < 100
8 | CN(C)C/C=C/C(=O)N1CC[C@@H](Nc2n[nH]c3nccc(Oc4ccn(Cc5ccccc5)c(=O)c4)c23)C1 [compound 15, 1-benzyl-4-[(3-{[(3R)-1-[(2E)-4-(dimethylamino)but-2-enoyl]pyrrolidin-3-yl]amino}-1H-pyrazolo[3,4-b]pyridin-4-yl)oxy]-1,2-dihydropyridin-2-one] | > 10000 | > 10000 | 100 to 1000
9 | CN(C)C/C=C/C(=O)N1CC[C@@H](Nc2n[nH]c3nccc(Oc4ccc(-c5ncco5)c(Cl)c4)c23)C1 [compound 16, (2E)-1-[(3R)-3-({4-[3-chloro-4-(1,3-oxazol-2-yl)phenoxy]-1H-pyrazolo[3,4-b]pyridin-3-yl}amino)pyrrolidin-1-yl]-4-(dimethylamino)but-2-en-1-one] | 1000 to 10000 | 1000 to 10000 | 100 to 1000
10 | CN(C)C/C=C/C(=O)N1CC[C@@H](Oc2n[nH]c3nccc(Nc4cccc(Oc5ccccc5)c4)c23)C1 [compound 17, (2E)-4-(dimethylamino)-1-[(3R)-3-({4-[(3-phenoxyphenyl)amino]-1H-pyrazolo[3,4-b]pyridin-3-yl}oxy)pyrrolidin-1-yl]but-2-en-1-one] | 100 to 1000 | < 100 | < 100
11 | N#C/C(=C\C1CC1)C(=O)N1CC[C@@H](Nc2n[nH]c3nccc(Oc4ccc(Oc5ccccc5)cc4)c23)C1 [compound 18, (2E)-3-cyclopropyl-2-[(E)-(3R)-{[4-(4-phenoxyphenoxy)-1H-pyrazolo[3,4-b]pyridin-3-yl]amino}pyrrolidine-1-carbonyl]prop-2-enenitrile] | 100 to 1000 | < 100 | < 100
12 | c1ccc(Oc2ccc(Oc3ncnc4[nH]nc(N[C@@H]5CCCNC5)c34)cc2)cc1 [compound 50] | – | > 10000 | > 10000
13 | N#Cc1ccnc(NC(=O)c2ccc(Oc3ccnc4[nH]nc(N[C@H]5CC[C@H](O)CC5)c34)cc2)c1 [compound 82, N-(4-cyanopyridin-2-yl)-4-[(3-{[(R,4R)-4-hydroxycyclohexyl]amino}-1H-pyrazolo[3,4-b]pyridin-4-yl)oxy]benzamide] | 100 to 1000 | – | < 100
14 | CC1(C(=O)N2CCC[C@@H](Nc3n[nH]c4nccc(Oc5ccc(C(=O)Nc6cc(C#N)ccn6)cc5)c34)C2)COC1 [compound 83, N-(4-cyanopyridin-2-yl)-4-[(3-{[(3R)-1-(3-methyloxetane-3-carbonyl)piperidin-3-yl]amino}-1H-pyrazolo[3,4-b]pyridin-4-yl)oxy]benzamide] | 100 to 1000 | – | < 100
15 | CC1(C(=O)N2CCC[C@@H](Nc3n[nH]c4nccc(Oc5ccc(C(=O)Nc6cc(C(F)(F)F)ccn6)cc5)c34)C2)COC1 [compound 84, 4-[(3-{[(3R)-1-(3-methyloxetane-3-carbonyl)piperidin-3-yl]amino}-1H-pyrazolo[3,4-b]pyridin-4-yl)oxy]-N-[4-(trifluoromethyl)pyridin-2-yl]benzamide] | 100 to 1000 | – | < 100
16 | Cc1cc(NC(=O)c2cccc(Oc3ccnc4[nH]nc(N[C@@H]5CCCNC5)c34)c2)ccc1C(C)C [compound 258, (R)—N-(4-isopropyl-3-methylphenyl)-3-(3-(piperidin-3-ylamino)-1H-pyrazolo[3,4-b]pyridin-4-yloxy)benzamide] | – | – | 100 to 1000
17 | Cc1cc(NC(=O)c2cccc(Nc3ccnc4[nH]nc(O[C@@H]5CCCNC5)c34)c2)ccc1C(C)C [compound 259, (R)—N-(4-isopropyl-3-methylphenyl)-3-(3-(piperidin-3-yloxy)-1H-pyrazolo[3,4-b]pyridin-4-ylamino)benzamide] | – | – | 100 to 1000
18 | Cc1cc(NC(=O)c2cccc(Oc3ccnc4[nH]nc(N[C@H]5CCNC5)c34)c2)ccc1C(C)C [compound 260, (S)—N-(4-isopropyl-3-methylphenyl)-3-(3-(pyrrolidin-3-ylamino)-1H-pyrazolo[3,4-b]pyridin-4-yloxy)benzamide] | – | – | 100 to 1000
19 | c1ccc(Oc2ccc(Oc3ccnc4[nH]nc(NC5CCNCC5)c34)cc2)cc1 [compound 261] | – | – | < 100
20 | c1ccc(Oc2ccc(Oc3ccnc4[nH]nc(NCC5CCNCC5)c34)cc2)cc1 [compound 262, 4-(4-phenoxyphenoxy)-N-(piperidin-4-ylmethyl)-1H-pyrazolo[3,4-b]pyridin-3-amine] | – | – | 100 to 1000
21 | c1ccc(Oc2ccc(Oc3ccnc4[nH]nc(NC[C@@H]5CCCNC5)c34)cc2)cc1 [compound 263, (R)-4-(4-phenoxyphenoxy)-N-(piperidin-3-ylmethyl)-1H-pyrazolo[3,4-b]pyridin-3-amine] | – | – | 100 to 1000
22 | c1ccc(Oc2ccc(Oc3ccnc4[nH]nc(NC[C@H]5CCNC5)c34)cc2)cc1 [compound 264, (S)-4-(4-phenoxyphenoxy)-N-(pyrrolidin-3-ylmethyl)-1H-pyrazolo[3,4-b]pyridin-3-amine] | – | – | 100 to 1000
23 | C=CC(=O)N1CCC(Nc2n[nH]c3nccc(Oc4ccc(Oc5ccccc5)cc4)c23)CC1 [compound 265, 1-(4-(4-(4-phenoxyphenoxy)-1H-pyrazolo[3,4-b]pyridin-3-ylamino)piperidin-1-yl)prop-2-en-1-one] | – | – | < 100
24 | C=CC(=O)N1CCC(CNc2n[nH]c3nccc(Oc4ccc(Oc5ccccc5)cc4)c23)CC1 [compound 266, 1-(4-((4-(4-phenoxyphenoxy)-1H-pyrazolo[3,4-b]pyridin-3-ylamino)methyl)piperidin-1-yl)prop-2-en-1-one] | – | – | < 100
25 | C=CC(=O)N1CCC[C@@H](CNc2n[nH]c3nccc(Oc4ccc(Oc5ccccc5)cc4)c23)C1 [compound 267, (S)-1-(3-((4-(4-phenoxyphenoxy)-1H-pyrazolo[3,4-b]pyridin-3-ylamino)methyl)piperidin-1-yl)prop-2-en-1-one] | – | – | < 100
26 | C=CC(=O)N1CC[C@H](CNc2n[nH]c3nccc(Oc4ccc(Oc5ccccc5)cc4)c23)C1 [compound 268, (R)-1-(3-((4-(4-phenoxyphenoxy)-1H-pyrazolo[3,4-b]pyridin-3-ylamino)methyl)pyrrolidin-1-yl)prop-2-en-1-one] | – | – | < 100
